{"source": "the NIST ThermoML archive (doi:10.1021/acs.jced.5b00606)", "key": {"[1]": {"settings": "for vapor or sublimation pressure: Liquid, Transpiration method"}, "[2]": {"test": "Molar enthalpy of transition or fusion", "settings": "Crystal; Drop ice or diphenyl ether calorimetry"}}, "note": "Numbers after ± are expanded uncertainties.", "data": [{"smiles": "c1cn2ccnc2cn1", "note": "[imidazo[1,2-a]pyrazine]", "values": [{"measurement": "vapor or sublimation pressure", "setting": "[1]; 369.6 K", "value": "0.1641 ± 0.018", "unit": "kPa"}, {"measurement": "vapor or sublimation pressure", "setting": "[1]; 373.8 K", "value": "0.2038 ± 0.022", "unit": "kPa"}, {"measurement": "vapor or sublimation pressure", "setting": "[1]; 379 K", "value": "0.2643 ± 0.028", "unit": "kPa"}, {"measurement": "vapor or sublimation pressure", "setting": "[1]; 383 K", "value": "0.34 ± 0.036", "unit": "kPa"}, {"measurement": "vapor or sublimation pressure", "setting": "[1]; 385.2 K", "value": "0.373 ± 0.04", "unit": "kPa"}, {"measurement": "vapor or sublimation pressure", "setting": "[1]; 388.2 K", "value": "0.4381 ± 0.047", "unit": "kPa"}, {"measurement": "vapor or sublimation pressure", "setting": "[1]; 390.2 K", "value": "0.4952 ± 0.053", "unit": "kPa"}, {"measurement": "vapor or sublimation pressure", "setting": "[1]; 393.4 K", "value": "0.5831 ± 0.062", "unit": "kPa"}, {"measurement": "Triple point temperature", "setting": "[1]; Crystal, DTA", "value": "359.2 ± 1.3", "unit": "K"}, {"measurement": "Molar enthalpy of transition or fusion", "setting": "[2]", "value": "3.66 ± 0.621", "unit": "kcal/mol"}]}]}
